“And” between values parts separate entries of the source, which are not always exact repeats. Equal values may be shown once. Read-outs that look alike come from different tables or passages of the source.
Legend:
[1] = test system: HCoV-229E; test: Infection of ALI-cultured primary HBEs, HCoV-229E; assay type: cell-based
Experimental: (§1) Primary HBEs at passage 3 or earlier were seeded at a density of 40,000 cells per well in Transwell inserts (Costar 6.5 mm Transwell, 0.4 μm Pore Polyester Membrane Inserts, catalog 3470) for expansion culture. The cells were cultured in expansion medium (PneumaCult-Ex Plus Medium, catalog 05040) until tight junctions were formed. Once tight junctions were established, the expansion medium in the upper chamber was discarded, and the medium in the lower chamber was replaced with ALI differentiation medium (PneumaCult-ALI Medium, catalog 05001). Cells were maintained under ALI conditions, with the medium being changed every 2 days. The differentiation process was carried out for 21 days, during which cell morphology and differentiation status were monitored. The fully differentiated cells were infected with HCoV-OC43, HCoV-229E, HCoV-NL63, or SARS-CoV-2 (MOI = 1), and fresh medium was changed 1 hour postinfection. Specific peptide was added into the medium every 24 hours. At 96 hours postinfection, cells in Transwell inserts were washed with 140 μL PBS per insert, and the wash fluid was collected to extract virus RNA followed by RT-qPCR. […] The fluorescence was measured using ImageJ (NIH).

[2] = test system: HCoV-NL63; test: In vitro antiviral activity assay (IFA), HCoV-NL63; assay type: cell-based; conditions: for Inhibition rate (IFA): Fig 5C, MOI 0.1, 48 h
[3] = test system: HCoV-229E; design: species or system K18-hACE2 C57BL/6 mice; conditions: mouse, in vivo
[4] = test system: HCoV-OC43 VLP; assay type: cell-based
[5] = test system: WIV1; test: microbe, parasite or virus in culture; assay type: cell-based, bat coronavirus WIV1; conditions: Bat coronavirus, 48 h, read-out: EC50 (IFA)
[6] = test system: MHV; test: microbe, parasite or virus in culture; conditions: Murine coronavirus, 24 h, read-out: EC50, rescue of coronavirus-induced cytopathic effects
[7] = test system: SARS-CoV-2 Omicron BA.5; assay type: in vivo, K18-hACE2 C57BL/6 mice; conditions: mouse, in vivo
[8] = test system: WIV1; assay type: cell-based, bat coronavirus WIV1
[9] = test system: Calu-3 cells
[10] = Tolerability of RTB in mice; conditions: high concentrations (500 mg/kg)
[11] = test system: MHV; design: species or system C57BL/6 mice; conditions: mouse, in vivo
[12] = test system: MHV; test: TEM of MHV-infected 17Cl-1 cells (virions, DMVs); assay type: cell-based, mouse hepatitis virus (MHV)
Experimental: WT or Hgs-KO 17Cl-1 cells were grown on ACLAR films and infected with MHV. At 24 hpi the cells were rinsed with PBS and then fixed with 2.5% glutaraldehyde in PBS overnight. The fixed cells were rinsed with 0.1 M PB 2 times and then double-distilled water 2 times, each time for 6 minutes. They were submerged in an aqueous solution containing 1% osmium tetraoxide and 1.5% potassium ferricyanide for 1.5 hours and then rinsed with double-distilled water 3 times, each time for 6 minutes. The samples underwent a dehydration process in which the solution submerging the samples was sequentially replaced by 30%, 50%, 70%, 80%, 90%, 100%, 100%, and 100% ethanol solutions, with each solution submerging the sample for 6 minutes. The samples were then infiltrated sequentially with 100% acetone for 6 minutes 2 times, 3:1 acetone/EMbed 812 resin for 1 hour, 1:1 acetone/EMbed 812 resin for 2 hours, 1:3 acetone/EMbed 812 resin for 3 hours, and 100% EMbed 812 resin for 12 hours 2 times. The samples were embedded in EMbed 812 resin and underwent solidification at 45°C for 12 hours and then 60°C for 48 hours. Sectioning was performed with a Leica EM UC6 ultramicrotome. The sections were stained with 2% uranyl acetate for 15 minutes and 1% lead citrate for 5 minutes. Electron micrographs were acquired with an FEI Tecnai Spirit 120 kV transmission electron microscope operating at 100 kV accelerating voltage.

[13] = test system: SARS-CoV-2 VLP; assay type: cell-based
[14] = test system: MERS VLP; assay type: cell-based, MERS-CoV
[15] = test system: MHV; test: microbe, parasite or virus in culture; assay type: cell-based, mouse hepatitis virus (MHV); conditions: Murine coronavirus, 24 h, read-out: EC50 (IFA)
[16] = test system: HCoV-NL63; test: Infection of ALI-cultured primary HBEs, HCoV-NL63; assay type: cell-based
Experimental: as §1

[17] = test system: HCoV-HKU1 VLP; assay type: cell-based
[18] = test system: 17Cl-1 cells
[19] = test system: SARS-CoV-2 Omicron BA.5; test: microbe, parasite or virus in culture; assay type: cell-based; conditions: Severe acute respiratory syndrome coronavirus 2, 24 h, read-out: EC50 (IFA)
[20] = TEM, RTB-treated versus DMSO, sheet does not name what is scored

SMILES: CCCC(=O)OC[C@@H](OC(=O)CCC)[C@@H](OC(=O)CCC)[C@H](Cn1c2nc(=O)[nH]c(=O)c-2nc2cc(C)c(C)cc21)OC(=O)CCC [RTB, riboflavin tetrabutyrate]
- extracellular viral gRNA levels (RT-qPCR) ([1]; Fig 5H, HCoV-229E MOI = 1, ALI-cultured HBEs, 96 h, RTB dose 5 (unit not given)): 7 and 6 and 8
- inhibition of infection in ALI cultures of HBEs ([1]; HCoV-229E): significant, dose-dependent inhibition
- Inhibition rate (IFA) ([2]; conc 30 (unit not given)): -14.9284% and -12.1937% and -12.3632%
- Inhibition rate (IFA) ([2]; conc 100 (unit not given)): -16.9149% and -18.5591% and -23.768%
- Inhibition rate (IFA) ([2]; conc 1000 (unit not given)): -12.8364% and -7.587% and -17.221%
- Inhibition rate (IFA) ([2]; conc 10000 (unit not given)): 59.7114% and 61.0537% and 58.023%
- Inhibition rate (IFA) ([2]; conc 25000 (unit not given)): 99.7675% and 100.17% and 100.28%
- EC50 ([2]; Human coronavirus NL63, 48 h, read-out: EC50 (IFA)): 8.46 µM
- pulmonary viral titers [3]: lowered pulmonary viral titers
- viral gRNA [3]: significantly reduced viral gRNA
- virus-induced lung injury [3]: markedly attenuated virus-induced lung injury
- VLPs' release [4]: concentration-dependent inhibition
- EC50 [5]: 3.53 µM
- EC50 [6]: 3.48 µM
- Survival curves: per-mouse event code [7]: 0
- body weight loss [7]: markedly reduced body weight loss
- lung inflammation [7]: alleviated lung inflammation
- pulmonary viral titers [7]: substantially lowered pulmonary viral titers
- survival [7]: significantly improved survival
- inhibition of infection in ALI cultures of HBEs [8]: significant, dose-dependent inhibition
- cell viability, Figure S9N ([9]; concentration 100): 105.852 and 107.383 and 107.23
- cell viability, Figure S9N ([9]; concentration 200): 101.565 and 101.412 and 100.391
- cell viability, Figure S9N ([9]; concentration 500): 101.157 and 97.3801 and 98.3498
- cell viability, Figure S9N ([9]; concentration 1000): 97.9415 and 98.4518 and 97.0228
- cell viability, Figure S9N ([9]; concentration 2000): 101.616 and 101.361 and 95.2365
- cell viability, Figure S9N ([9]; concentration 5000): 102.331 and 100.647 and 99.932
- cell viability, Figure S9N ([9]; concentration 10000): 101.31 and 101.055 and 99.5747
- cell viability, Figure S9N ([9]; concentration 20000): 107.281 and 106.312 and 107.792
- cytotoxicity or adverse effects in mice [10]: no cytotoxicity or adverse effects
- pulmonary viral titers [11]: lowered pulmonary viral titers
- viral gRNA [11]: significantly reduced viral gRNA
- virus-induced lung injury [11]: markedly attenuated virus-induced lung injury
- DMVs, the replication organelles (TEM) ([12]; 25 μM, MHV-infected 17Cl-1, hpi = 24 h): not significantly changed
- intracellular mature virions (TEM) ([12]; 25 μM, MHV-infected 17Cl-1, hpi = 24 h, compared with DMSO): significantly decreased
- Negative (count, Figure 7G) ([12]; RTB-treated, DMSO: 19): 2
- Positive (count, Figure 7G) ([12]; RTB-treated, DMSO: 41): 58
- Negative (number of cells counted, Figure 7H) [12, 20]: 37
- Positive (number of cells counted, Figure 7H) [12, 20]: 23
- VLPs' release [13]: concentration-dependent inhibition
- VLPs' release [14]: concentration-dependent inhibition
- EC50 [15]: 11.2 µM
- extracellular viral gRNA levels (RT-qPCR) ([16]; Fig 5J, HCoV-NL63 MOI = 1, ALI-cultured HBEs, 96 h, RTB dose 5 (unit not given)): 46 and 42 and 25
- inhibition of infection in ALI cultures of HBEs ([16]; HCoV-NL63): significant, dose-dependent inhibition
- VLPs' release [17]: concentration-dependent inhibition
- cell viability, Figure S9C ([18]; concentration 100): 97.7719 and 100.641 and 97.299
- cell viability, Figure S9C ([18]; concentration 200): 98.9701 and 100.61 and 98.3395
- cell viability, Figure S9C ([18]; concentration 500): 100.294 and 99.5691 and 98.0557
- cell viability, Figure S9C ([18]; concentration 1000): 100.137 and 99.6952 and 100.704
- cell viability, Figure S9C ([18]; concentration 2000): 101.366 and 100.294 and 100.61
- cell viability, Figure S9C ([18]; concentration 5000): 101.555 and 101.524 and 100.673
- cell viability, Figure S9C ([18]; concentration 10000): 99.979 and 101.24 and 100.294
- cell viability, Figure S9C ([18]; concentration 20000): 99.506 and 99.1907 and 98.4025
- EC50 [19]: 4.09 µM
